Experimental data from patent publication US7989438B2, “Therapeutic compounds” (Istituto di Ricerche di Biologia Molecolare P. Angeletti SpA, priority 2007, dated 2011).
Like-named read-outs stand apart in the source and are kept apart here.

Test system: HCV subgenomic replication
Assay: Cell based HCV replication assay (subgenomic replicon in Huh-7 cells, NS3 Cell-ELISA)
Details: activity ranges
Excerpt: Cell clones that stably maintain subgenomic HCV replicon were obtained by transfecting Huh-7 cells with an RNA replicon identical to I377neo/NS3-3′/wt described by Lohmann et al. (1999) (EMBL-genbank No. AJ242652), followed by selection with neomycin sulfate (G418). Viral replication was monitored by measuring the expression of the NS3 protein by an ELISA assay performed directly on cells grown in 96 wells microtiter plates (Cell-ELISA) using the anti-NS3 monoclonal antibody 10E5/24 (as described in published International application WO 02/59321). Cells were seeded into 96 well plates at a density of 10^4 cells per well in a final volume of 0.1 ml of DMEM/10% FCS. Two hours after plating, 50 μl of DMEM/10% FCS containing a 3× concentration of inhibitor were added, cells were incubated for 96 hours and then fixed for 10 minutes with ice-cold isopropanol. Each condition was tested in duplicate and average absorbance values were used for calculations. The cells were washed twice with PBS, blocked with 5% non-fat dry milk in PBS+0.1% Triton X100+0.02% SDS (PBSTS) and then incubated o/n at 4° C. with the 10E5/24 mab diluted in Milk/PBSTS. After washing 5 times with PBSTS, the cells were incubated for 3 hours at room temperature with Fc specific anti-mouse IgG conjugated to alkaline phosphatase (Sigma), diluted in Milk/PBSTS. After washing again as above, the reaction was developed with p-Nitrophenyl phosphate disodium substrate (Sigma) and the absorbance at 405/620 nm read at intervals. For calculations, we used data sets where samples incubated without inhibitors had absorbance values comprised between 1 and 1.5. The inhibitor concentration that reduced by 50% the expression of NS3 (IC50) was calculated by fitting the data to the Hill equation, Fraction inhibition=1−(Ai−b)/(A0−b)=[I]^n/([I]^n+[…]) where: • Ai=absorbance value of HBI10 cells supplemented with the indicated inhibitor concentration. • A0=absorbance value of HBI10 cells incubated without inhibitor. • b=absorbance value of Huh-7 cells plated at the same density in the same microtiter plates and incubated without inhibitor. • n=Hill coefficient.

[1] = Table A, Huh-7 replicon cells, 96 hours, read-out: IC50 (nM), Inhibition of HCV subgenomic replication
[2] = Table 1, 16 membered macrocycles, read-out: IC50* (nM), Inhibition of HCV subgenomic replication
[3] = Table 2, various macrocycles, read-out: IC50* (nM), Inhibition of HCV subgenomic replication

Row | Structure (SMILES) | IC50 [1] [nM] | IC50 [2] [nM] | also measured
1 | CN1CCCC2COc3ccccc3-c3c(C4CCCCC4)c4ccc(cc4n3C2)C(=O)NS(=O)(=O)N(C)CC1 [Compound A25, (7R)-14-cyclohexyl-18,21-dimethyl-7,8-dihydro-6H-7,11-(propanoiminoethanoiminothioiminomethano)indolo[1,2-e][1,5]benzoxazocin-15-one 17,17-dioxide] | < 25 | – | –
2 | CCN1CCN(C)C2COc3c(CN4CCCCC4)cccc3-c3c(C4CCCCC4)c4ccc(cc4n3C2)C(=O)NS(=O)(=O)N(C)CC1 [Compound A26, (7R)-14-cyclohexyl-21-ethyl-18,24-dimethyl-4-(piperidin-1-ylmethyl)-7,8-dihydro-6H-7,11-(epiminoethanoiminoethanoiminothioiminomethano)indolo[1,2-e][1,5]benzoxazocin-15-one 17,17-dioxide] | < 25 | – | –
3 | COc1cccc2c1OCC1Cn3c-2c(C2CCCCC2)c2ccc(cc23)C(=O)NS(=O)(=O)N(C)CCNCCN1C [Compound A27, (7R)-14-cyclohexyl-4-methoxy-18,24-dimethyl-7,8-dihydro-6H-7,11-(epiminoethanoiminoethanoiminothioiminomethano)indolo[1,2-e][1,5]benzoxazocin-15-one 17,17-dioxide] | < 25 | – | –
4 | CCN1CCN(C)C2COc3c(OC)cccc3-c3c(C4CCCCC4)c4ccc(cc4n3C2)C(=O)NS(=O)(=O)N(C)CC1 [Compound A28, (7R)-14-cyclohexyl-21-ethyl-4-methoxy-18,24-dimethyl-7,8-dihydro-6H-7,11-(epiminoethanoiminoethanoiminothioiminomethano)indolo[1,2-e][1,5]benzoxazocin-15-one 17,17-dioxide] | < 25 | – | –
5 | COc1cccc2c1OCC1Cn3c-2c(C2CCCCC2)c2ccc(cc23)C(=O)NS(=O)(=O)N(C)CCN(Cc2cnn(C)c2)CCN1C [Compound A29, (7R)-14-cyclohexyl-4-methoxy-18,24-dimethyl-21-[(1-methyl-1H-pyrazol-4-yl)methyl]-7,8-dihydro-6H-7,11-(epiminoethanoiminoethanoiminothioiminomethano)indolo[1,2-e][1,5]benzoxazocin-15-one 17,17-dioxide] | < 25 | – | –
6 | CNC(=O)CN1CCN(C)CCN(C)S(=O)(=O)NC(=O)c2ccc3c(C4CCCCC4)c4n(c3c2)CC1COc1ccccc1-4 [Compound A30, 2-[(7R)-14-cyclohexyl-18,21-dimethyl-17,17-dioxido-15-oxo-7,8-dihydro-6H-7,11-(epiminoethanoiminoethanoiminothioiminomethano)indolo[1,2-e][1,5]benzoxazocin-24-yl]-N-methylacetamide] | 25 to 150 | – | –
7 | CN(C)CCN1CCC(C)(C)CCN(C)S(=O)(=O)NC(=O)c2ccc3c(C4CCCCC4)c4n(c3c2)CC1COc1ccccc1-4 [Compound A31, (7R)-14-cyclohexyl-24-[2-(dimethylamino)ethyl]-18,21,21-trimethyl-7,8-dihydro-6H-7,11-(epiminopentanoiminothioiminomethano)indolo[1,2-e][1,5]benzoxazocin-15-one 17,17-dioxide] | < 25 | – | –
8 | CN1CCN(C)C2COc3c(OCCN4CCCC4)cccc3-c3c(C4CCCCC4)c4ccc(cc4n3C2)C(=O)NS(=O)(=O)N(C)CC1 [Compound A32, (7R)-14-cyclohexyl-18,21,24-trimethyl-4-(2-pyrrolidin-1-ylethoxy)-7,8-dihydro-6H-7,11-(epiminoethanoiminoethanoiminothioiminomethano)indolo[1,2-e][1,5]benzoxazocin-15-one 17,17-dioxide] | < 25 | – | –
9 | O=C1NS(=O)(=O)N2CCN(CCCC3COc4ccccc4-c4c(C5CCCCC5)c5ccc1cc5n4C3)CC2 (centres unmarked) [Compound A34, 30-cyclohexyl-18-oxa-2-thia-1,3,10,24-tetraazahexacyclo[22.2.2.1^5,9.1^8,11.1^10,20.0^12,17]hentriaconta-5(31),6,8,11(30),12,14,16-heptaen-4-one 2,2-dioxide] | – | – | IC50 (Hepatitis C virus, Table A, Huh-7 replicon cells, 96 hours, read-out: IC50 (nM), Inhibition of HCV subgenomic replication): 25 to 150 nM
10 | CN1CCCN(C)S(=O)(=O)NC(=O)c2ccc3c(C4CCCCC4)c4n(c3c2)CC(CC1)COc1ccccc1-4 (centres unmarked) [Example 101, 14-cyclohexyl-18,22-dimethyl-7,8-dihydro-6H-7,11-(ethanoiminopropanoiminothioiminomethano)indolo[1,2-e][1,5]benzoxazocin-15-one 17,17-dioxide] | – | 25 to 150 | –
11 | CN1CCN(CCOCc2ccccc2)CCN(C)S(=O)(=O)NC(=O)c2ccc3c(C4CCCCC4)c4n(c3c2)CC1COc1ccccc1-4 [Example 102, (7R)-21-[2-(benzyloxy)ethyl]-14-cyclohexyl-18,24-dimethyl-7,8-dihydro-6H-7,11-(epiminoethanoiminoethanoiminothioiminomethano)-indolo[1,2-e][1,5]benzoxazocin-15-one 17,17-dioxide] | – | < 25 | –
12 | CN1CCN(CCO)CCN(C)S(=O)(=O)NC(=O)c2ccc3c(C4CCCCC4)c4n(c3c2)CC1COc1ccccc1-4 [Example 103, (7R)-14-cyclohexyl-21-(2-hydroxyethyl)-18,24-dimethyl-7,8-dihydro-6H-7,11-(epiminoethanoiminoethanoiminothioiminomethano)-indolo[1,2-e][1,5]benzoxazocin-15-one 17,17-dioxide] | – | < 25 | –
13 | CC(C)CN1CCN(C)C2COc3ccccc3-c3c(C4CCCCC4)c4ccc(cc4n3C2)C(=O)NS(=O)(=O)N(C)CC1 [Example 104, (7R)-14-cyclohexyl-21-isobutyl-18,24-dimethyl-7,8-dihydro-6H-7,11-(epiminoethanoiminoethanoiminothioiminomethano)-indolo[1,2-e][1,5]benzoxazocin-15-one 17,17-dioxide] | – | < 25 | –
14 | CN(C)CC(=O)N1CCN(C)[C@H]2COc3ccccc3-c3c(C4CCCCC4)c4ccc(cc4n3C2)C(=O)NS(=O)(=O)N(C)CC1 [Example 105, (7R)-14-cyclohexyl-21-(N,N-dimethylglycyl)-18,24-dimethyl-7,8-dihydro-6H-7,11-(epiminoethanoiminoethanoiminothioiminomethano)-indolo[1,2-e][1,5]benzoxazocin-15-one 17,17-dioxide] | – | < 25 | –
15 | CCN1CCN(C)C2COc3ccccc3-c3c(C4CCCCC4)c4ccc(cc4n3C2)C(=O)NS(=O)(=O)N(CCO)CC1 [Example 106, (7R)-14-cyclohexyl-21-ethyl-18-(2-hydroxyethyl)-24-methyl-7,8-dihydro-6H-7,11-(epiminoethanoiminoethanoiminothioiminomethano)-indolo[1,2-e][1,5]benzoxazocin-15-one 17,17-dioxide] | – | < 25 | –
16 | CCN1CCN(CC)C2COc3ccccc3-c3c(C4CCCCC4)c4ccc(cc4n3C2)C(=O)NS(=O)(=O)N(C)CC1 [Example 107, (7R)-14-cyclohexyl-21,24-diethyl-18-methyl-7,8-dihydro-6H-7,11-(epiminoethanoiminoethanoiminothioiminomethano)-indolo[1,2-e][1,5]benzoxazocin-15-one 17,17-dioxide] | – | < 25 | –
17 | CN1CCN(Cc2ccccc2)CCN(C)S(=O)(=O)NC(=O)c2ccc3c(C4CCCCC4)c4n(c3c2)CC1Cc1ccccc1-4 (centres unmarked) [Example 201, 20-benzyl-13-cyclohexyl-17,23-dimethyl-6,7-dihydro-5H-6,10-(epiminoethanoiminoethanoiminothioiminomethano)-indolo[2,1-a][2]benzazepin-14-one 16,16-dioxide] | – | – | IC50 [3]: > 500 nM
18 | CN1CCN(C)C2COc3ccc(F)cc3-c3c(C4CCCCC4)c4ccc(cc4n3C2)C(=O)NS(=O)(=O)N(C)CC1 [Example 202, (7R)-14-cyclohexyl-2-fluoro-18,21,24-trimethyl-7,8-dihydro-6H-7,11-(epiminoethanoiminoethanoiminothioiminomethano)-indolo[1,2-e][1,5]benzoxazocin-15-one 17,17-dioxide] | – | – | IC50 [3]: < 25 nM
19 | CCN1CCN(C)C2COc3cc(F)ccc3-c3c(C4CCCCC4)c4ccc(cc4n3C2)C(=O)NS(=O)(=O)N(C)CC1 [Example 203, (7R)-14-cyclohexyl-21-ethyl-3-fluoro-18,24-dimethyl-7,8-dihydro-6H-7,11-(epiminoethanoiminoethanoiminothioiminomethano)-indolo[1,2-e][1,5]benzoxazocin-15-one 17,17-dioxide] | – | – | IC50 [3]: < 25 nM
20 | CCN1CCNC2COc3cc(F)ccc3-c3c(C4CCCCC4)c4ccc(cc4n3C2)C(=O)NS(=O)(=O)N(C)CC1 [Example 204, (7R)-14-cyclohexyl-21-ethyl-3-fluoro-18-methyl-7,8-dihydro-6H-7,11-(epiminoethanoiminoethanoiminothioiminomethano)-indolo[1,2-e][1,5]benzoxazocin-15-one 17,17-dioxide] | – | – | IC50 [3]: 25 to 150 nM
